Laboratory results taken from patent US9884063B2, “Amido-substituted azole compounds” (Bayer Pharma Aktiengesellschaft, priority 2014, dated 2018).

Target: T1, TNKS1 (Homo sapiens, UniProt O95271)
T1 sequence (O95271 1-1327): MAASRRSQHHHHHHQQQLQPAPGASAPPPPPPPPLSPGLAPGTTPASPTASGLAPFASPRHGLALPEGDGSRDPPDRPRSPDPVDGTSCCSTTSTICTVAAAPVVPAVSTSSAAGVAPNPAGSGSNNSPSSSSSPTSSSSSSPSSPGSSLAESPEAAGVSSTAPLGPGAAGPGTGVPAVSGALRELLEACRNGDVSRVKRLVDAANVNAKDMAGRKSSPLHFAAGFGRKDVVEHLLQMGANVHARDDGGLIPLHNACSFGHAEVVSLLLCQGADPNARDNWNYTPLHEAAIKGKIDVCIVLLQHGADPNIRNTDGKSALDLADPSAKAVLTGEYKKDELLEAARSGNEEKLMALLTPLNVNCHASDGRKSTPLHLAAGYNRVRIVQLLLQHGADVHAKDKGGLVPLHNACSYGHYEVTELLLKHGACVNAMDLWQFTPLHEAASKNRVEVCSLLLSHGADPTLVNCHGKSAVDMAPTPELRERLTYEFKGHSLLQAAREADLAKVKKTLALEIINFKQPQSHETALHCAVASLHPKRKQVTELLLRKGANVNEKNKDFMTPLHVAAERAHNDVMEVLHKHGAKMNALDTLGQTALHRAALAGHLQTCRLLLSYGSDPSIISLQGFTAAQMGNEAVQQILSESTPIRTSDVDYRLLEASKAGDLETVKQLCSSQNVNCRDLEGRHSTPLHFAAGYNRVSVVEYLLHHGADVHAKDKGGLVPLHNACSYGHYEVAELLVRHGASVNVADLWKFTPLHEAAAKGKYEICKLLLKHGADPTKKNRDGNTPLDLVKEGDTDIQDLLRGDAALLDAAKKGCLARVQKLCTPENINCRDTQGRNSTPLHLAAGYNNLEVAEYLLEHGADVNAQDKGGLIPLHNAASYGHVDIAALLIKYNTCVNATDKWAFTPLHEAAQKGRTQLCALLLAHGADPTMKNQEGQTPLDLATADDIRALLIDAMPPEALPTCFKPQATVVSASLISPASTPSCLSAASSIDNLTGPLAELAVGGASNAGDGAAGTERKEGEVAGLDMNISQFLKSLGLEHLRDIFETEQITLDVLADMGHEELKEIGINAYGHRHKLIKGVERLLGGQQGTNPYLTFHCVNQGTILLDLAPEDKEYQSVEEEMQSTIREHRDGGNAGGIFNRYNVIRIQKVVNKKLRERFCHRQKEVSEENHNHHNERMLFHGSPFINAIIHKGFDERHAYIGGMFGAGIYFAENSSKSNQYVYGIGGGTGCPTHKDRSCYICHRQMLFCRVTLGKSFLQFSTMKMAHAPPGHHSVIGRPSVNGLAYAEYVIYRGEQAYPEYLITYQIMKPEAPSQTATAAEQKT
Assay: Modified TNKS1 Assay 2 (auto-parsylation, [3H]-NAD+ SPA)
Format: biochemical
Settings: 6 nM TNKS1, 96 well
Experimental: The potency of selected compounds according to the invention was assessed applying an modified in vitro inhibition assay. Here, the TNKS1 catalyzed NAD^+-dependent ribosylation of the enzyme itself (auto-parsylation) was detected using [^3H]-NAD^+ as substrate and applying the scintillation proximity assay (SPA) method to detect tritium-labeled, parsylated TNKS1. The intensity of the readout signal is proportional to the incorporated [^3H]-NAD^+. Inhibition of TNKS1 leads to a decreased incorporation of [^3H]-NAD^+ and consequently to a lower readout signal intensity. The concentration of a test compound which inhibits the enzyme activity by 50% (corresponds to half of the normed readout signal intensity) is reported as IC50.
The assay was conducted in a 96 well MTP format with the identical TNKS1 enzyme sample and NAD^+ sample as in the histone ribosylation assay with the following modifications: TNKS1 enzyme sample was diluted with a modified assay buffer (50 mM MES pH 7.0, 1 mM DTT, 0.01% Triton X-100) to a final concentration of 6 nM TNKS1 and 10×NAD^+ solution was diluted with the modified assay buffer (s. above) to a final 0.445×NAD^+ solution doped with 100 Bq/ul [^3H]-NAD^+[Catalog #NET443H050UC, Perkin Elmer, Waltham, Mass., USA]. Substrate solution (10 ul) was incubated with different test compound concentrations (2.5 ul in 10% DMSO in modified assay buffer) or control (2.5 ul 10% DMSO in modified assay buffer only) and enzyme (10 ul) over night at room temperature. Incorporated tritium was measured after addition of 50 ul SPA beads (1 mg/ml) [Catalog #RPNQ0095 20 mg/ml, Perkin Elmer, Waltham, Mass., USA; diluted 1:10 with Dulbecco's phosphate buffered saline, PBS Catalog #D8537, Sigma-Aldrich, Steinheim, Germany] and detection of the photon emission with a beta count plate reader [Wallac MicroBeta®, Perkin Elmer, Waltham, Mass., USA].

| SMILES | IC50 [µM] |
| --- | --- |
| CNC(=O)c1nc[nH]c1C(=O)Nc1ccc(NC(=O)c2ccccc2C)cc1 [Example 19, N^4-methyl-N^5-{4-[(2-methylbenzoyl)amino]phenyl}-1H-imidazole-4,5-dicarboxamide] | 1.8 |
| CNC(=O)c1nc[nH]c1C(=O)Nc1ccc(NC(=O)c2cc(F)c(F)cc2Cl)cc1 [Example 242, N^5-{4-[(2-chloro-4,5-difluorobenzoyl)amino]phenyl}-N^4-methyl-1H-imidazole-4,5-dicarboxamide] | 0.02 |
| CC1CCN(CC(C)(C)NC(=O)c2[nH]cnc2C(=O)Nc2ccc(NC(=O)c3ccc(F)cc3Cl)cc2)CC1 [Example 155, N^4-{4-[(2-chloro-4-fluorobenzoyl)amino]phenyl}-N^5-[2-methyl-1-(4-methylpiperidin-1-yl)propan-2-yl]-1H-imidazole-4,5-dicarboxamide] | 0.06 |
| CNC(=O)c1nc[nH]c1C(=O)Nc1ccc(NC(=O)c2ccc(OCCN3CCN(C)CC3)cc2Cl)cc1 [Example 28, N^5-[4-({2-chloro-4-[2-(4-methylpiperazin-1-yl)ethoxy]benzoyl}amino)phenyl]-N^4-methyl-1H-imidazole-4,5-dicarboxamide] | 0.06 |
| CNC(=O)c1nc[nH]c1C(=O)Nc1ccc(NC(=O)c2ccc(F)cc2Cl)c(C)c1 [Example 5, N^5-{4-[(2-chloro-4-fluorobenzoyl)amino]-3-methylphenyl}-N^4-methyl-1H-imidazole-4,5-dicarboxamide] | 0.32 |
| CNC(=O)c1nc[nH]c1C(=O)Nc1ccc(NC(=O)c2cc(OC)c(OC)cc2Cl)cc1 [Example 240, N^5-{4-[(2-chloro-4,5-dimethoxybenzoyl)amino]phenyl}-N^4-methyl-1H-imidazole-4,5-dicarboxamide] | 0.008 |
| CC(C)(CNC(=O)c1[nH]cnc1C(=O)Nc1ccc(NC(=O)c2ccc(F)cc2)cc1)N1CCCCC1 [Example 209, N^4-{4-[(4-fluorobenzoyl)amino]phenyl}-N^5-[2-methyl-2-(piperidin-1-yl)propyl]-1H-imidazole-4,5-dicarboxamide] | 0.4 |
| O=C(Nc1ccc(NC(=O)c2nc[nH]c2C(=O)NC(CO)CO)cc1)c1ccccc1Cl [Example 157, N^4-{4-[(2-chlorobenzoyl)amino]phenyl}-N^5-(1,3-dihydroxypropan-2-yl)-1H-imidazole-4,5-dicarboxamide] | 1.2 |
| CC(CNC(=O)c1[nH]cnc1C(=O)Nc1ccc(NC(=O)c2ccccc2Cl)cc1)N1CCCCC1 (stereo not drawn) [Example 182, N^4-{4-[(2-chlorobenzoyl)amino]phenyl}-N^5-[2-(piperidin-1-yl)propyl]-1H-imidazole-4,5-dicarboxamide] | 0.01 |
| CNC(=O)c1nc[nH]c1C(=O)Nc1ccc(NC(=O)c2ccc(Cl)cc2Cl)cc1 [Example 9, N^5-{4-[(2,4-dichlorobenzoyl)amino]phenyl}-N^4-methyl-1H-imidazole-4,5-dicarboxamide] | 0.15 |
| CCS(=N)(=O)c1ccc(C(=O)Nc2ccc(NC(=O)c3[nH]cnc3C(=O)NCCN3CCCCC3)cc2)c(Cl)c1 (stereo not drawn) [Example 256, N^5-(4-{[2-chloro-4-(S-ethylsulfonimidoyl)benzoyl]amino}phenyl)-N^4-[2-(piperidin-1-yl)ethyl]-1H-imidazole-4,5-dicarboxamide] | 0.009 |
| NC(=O)c1nc[nH]c1C(=O)Nc1ccc(NC(=O)c2ccc(F)cc2Cl)cc1 [Example 121] | 0.04 |
| O=C(Nc1ccc(NC(=O)c2nc[nH]c2C(=O)NCCF)cc1)c1ccc(F)cc1Cl [Example 173, N^4-{4-[(2-chloro-4-fluorobenzoyl)amino]phenyl}-N^5-(2-fluoroethyl)-1H-imidazole-4,5-dicarboxamide] | 0.03 |
| CNC(=O)c1nc[nH]c1C(=O)Nc1ccc(NC(=O)c2cc(OCCN3CCCCC3)ccc2Cl)cc1 [Example 125, N^5-[4-({2-chloro-5-[2-(piperidin-1-yl)ethoxy]benzoyl}amino)phenyl]-N^4-methyl-1H-imidazole-4,5-dicarboxamide] | > 10 |
| CCNC(=O)c1nc[nH]c1C(=O)Nc1ccc(NC(=O)c2ccccc2S(C)(=O)=O)cc1 [Example 257, N^4-ethyl-N^5-(4-{[2-(methylsulfonyl)benzoyl]amino}phenyl)-1H-imidazole-4,5-dicarboxamide] | 7.8 |
| CN1CCN(CCNC(=O)c2[nH]cnc2C(=O)Nc2ccc(NC(=O)c3ccccc3Cl)cc2)CC1 [Example 160, N^4-{4-[(2-chlorobenzoyl)amino]phenyl}-N^5-[2-(4-methylpiperazin-1-yl)ethyl]-1H-imidazole-4,5-dicarboxamide] | 0.08 |

Second part, the compound after the results:

| IC50 [µM] | SMILES |
| --- | --- |
| 0.04 | CC1CCN(CCNC(=O)c2[nH]cnc2C(=O)Nc2ccc(NC(=O)c3ccc(F)cc3)cc2)CC1 [Example 164, N^4-{4-[(4-fluorobenzoyl)amino]phenyl}-N^5-[2-(4-methylpiperidin-1-yl)ethyl]-1H-imidazole-4,5-dicarboxamide] |
| 0.004 | O=C(Nc1ccc(NC(=O)c2nc[nH]c2C(=O)NCCN2CCCC(F)C2)cc1)c1ccc(F)cc1Cl (stereo not drawn) [Example 226, N^4-{4-[(2-chloro-4-fluorobenzoyl)amino]phenyl}-N^5-[2-(3-fluoropiperidin-1-yl)ethyl]-1H-imidazole-4,5-dicarboxamide] |
| 0.03 | CC(C)(CNC(=O)c1[nH]cnc1C(=O)Nc1ccc(NC(=O)c2ccccc2Cl)cc1)N1CCCCC1 [Example 165, N^4-{4-[(2-chlorobenzoyl)amino]phenyl}-N^5-[2-methyl-2-(piperidin-1-yl)propyl]-1H-imidazole-4,5-dicarboxamide] |
| 0.03 | CNC(=O)c1nc[nH]c1C(=O)Nc1ccc(NC(=O)c2ccc(F)cc2Cl)nc1 [Example 16, N^5-{6-[(2-chloro-4-fluorobenzoyl)amino]pyridin-3-yl}-N^4-methyl-1H-imidazole-4,5-dicarboxamide] |
| 9.3 | CNC(=O)c1nc[nH]c1C(=O)Nc1ccc(NC(=O)c2cccc(OC)c2Cl)cc1 [Example 252, N^5-{4-[(2-chloro-3-methoxybenzoyl)amino]phenyl}-N^4-methyl-1H-imidazole-4,5-dicarboxamide] |
| 0.11 | CC(C)CNC(=O)c1[nH]cnc1C(=O)Nc1ccc(NC(=O)c2ccc(F)cc2Cl)cc1 [Example 147, N^4-{4-[(2-chloro-4-fluorobenzoyl)amino]phenyl}-N^5-isobutyl-1H-imidazole-4,5-dicarboxamide] |
| 0.007 | O=C(Nc1ccc(NC(=O)c2nc[nH]c2C(=O)NCCN2CCCCC2)cc1)c1ccc(F)cc1Br [Example 216, N^4-{4-[(2-bromo-4-fluorobenzoyl)amino]phenyl}-N^5-[2-(piperidin-1-yl)ethyl]-1H-imidazole-4,5-dicarboxamide] |
| 0.22 | O=C(Nc1ccc(NC(=O)c2nc[nH]c2C(=O)NCCCCN2CCCCC2)cc1)c1ccccc1Cl [Example 189, N^4-{4-[(2-chlorobenzoyl)amino]phenyl}-N^5-[4-(piperidin-1-yl)butyl]-1H-imidazole-4,5-dicarboxamide] |
